Assay results published in patent US11135207B2, “Inhibitors of dihydroceramide desaturase for treating disease” (Centaurus Therapeutics, priority 2016, dated 2021).
Several values for one entry are separate records, joined by “and”; a condition that tells them apart may be missing. Identical values can stand only once. Like-named read-outs stand apart in the source and are kept apart here.

Target: Des1 (Homo sapiens (Human), UniProt O15121)
Experiment: Jurkat T cell measurement of conversion of dihydroceramide to ceramide
Type: cell-based
Settings: for inhibition at 10 µM: read-out: Des1 % Inhib (10 μM); for IC50: read-out: Des1 IC50; for inhibition at 1 µM: read-out: Des1 % Inhib (1 μM); for inhibition at 0.5 µM: read-out: Des1 % Inhib (0.5 μM)
Method: Jurkat T Cell Measurement of Conversion of Dihydroceramide to Ceramide
Jurkat clone E6-1 cells were grown and then seeded at 10^6 cells/mL in a 96-well plate (400 μL in each well. The cells were administered 100 μL of cell culture media containing 50-μM NBD-C6-dihydroceramide (Des1 substrate), affording a final concentration of substrate of 10 μM. The cells were incubated with substrate at 4° C. for 30 minutes. Following the incubation at 4° C., the cell suspension was centrifuged at 1200 rpm for 3 minutes, and the cell pellet is resuspended in 400 μL of fresh media containing various concentrations of either fenretinide (known Des1 inhibitor control compound) or test article. The final concentrations of control compound and test compounds were tested in a range from 0-10 μM. The cells and compounds were incubated at 37° C. for 3 hours. Following the 3-hour incubation, the plate was centrifuged at 2500 g for 3 minutes at 4° C., followed by collection and transfer of 200 μL of the supernatant to a new 96-well plate with 300 μL of methanol an containing appropriate internal standards for liquid chromatography/tandem mass spectroscopy (LC/MS/MS) analysis (internal standard: 500 nM labetalol and 100 nM alprazolam). The samples were vortexed for 2 minutes followed by centrifugation at 3,220 g for 20 minutes. Following centrifugation, 200 μL of the supernatant was transferred to a new 96-well plate for LC-MS/MS analysis to determine the amount of NBD-C6-ceramide (Des1 product) produced. The assay was typically performed in duplicate. A reduction of at least 30% compared to vehicle control (0 μM test article) is indicative of an active compound, and a reduction of 75% compared to vehicle control is preferred.

[1] = 10 μM compound, Jurkat clone E6-1 cells, NBD-C6-dihydroceramide substrate
[2] = Jurkat clone E6-1 cells, NBD-C6-dihydroceramide substrate
[3] = 1 μM compound, Jurkat clone E6-1 cells
[4] = 0.5 μM compound, Jurkat clone E6-1 cells

Chain of Des1 (O15121 whole entry): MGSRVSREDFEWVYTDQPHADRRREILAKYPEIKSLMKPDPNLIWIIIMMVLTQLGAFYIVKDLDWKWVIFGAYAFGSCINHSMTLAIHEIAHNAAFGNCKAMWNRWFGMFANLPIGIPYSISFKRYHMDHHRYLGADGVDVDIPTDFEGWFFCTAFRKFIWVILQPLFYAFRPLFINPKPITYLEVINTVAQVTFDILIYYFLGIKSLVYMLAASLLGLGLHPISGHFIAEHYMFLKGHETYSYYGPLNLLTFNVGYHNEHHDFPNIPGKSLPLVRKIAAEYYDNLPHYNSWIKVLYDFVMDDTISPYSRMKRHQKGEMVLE

SMILES | IC50 [2] | inhibition at 1 µM [3] [%] | inhibition at 0.5 µM [4] [%] | further results
O=C(Nc1ccc(O)cc1)[C@@H]1C[C@H]1c1ccccc1 (relative stereo) [Example 6, (trans)-N-(4-hydroxyphenyl)-2-phenyl-cyclopropane-carboxamide] | 590 nM |  |  | inhibition at 10 µM [1]: 76%
O=C(Nc1ccc(O)cc1)c1ccc2ccccc2c1 [Example 2, N-(4-hydroxy-phenyl)-2-naphthamide] | 840 nM |  |  | inhibition at 10 µM [1]: 78%
C/C(=C\C(=O)Nc1ccc(O)cc1)c1ccccc1 [Example 3, (E)-N-(4-hydroxy-phenyl)-3-phenylbut-2-enamide] | 4460 nM |  |  | inhibition at 10 µM [1]: 49%
O=C(/C=C/c1ccccc1)Nc1ccc(O)cc1 [Example 4, N-(4-hydroxy-phenyl)-cinnamide] | 440 nM |  |  | inhibition at 10 µM [1]: 85%
O=C(Nc1ccc(O)cc1)c1ccc(-c2ccccc2)cc1 [Example 5, N-(4-hydroxy-phcnyl)-[1,1′-biphenyl]-4-carboxamide] | 50 nM |  |  | inhibition at 10 µM [1]: 88%
O=C(Nc1ccc(O)cn1)c1ccc2ccccc2c1 [Example 7, N-(5-hydroxy-pyridin-2-yl)-2-naphth-amide] | 180 nM | 79.8 |  | 
O=C(/C=C/c1ccccc1)Nc1ccc(O)cn1 [Example 8, N-(5-hydroxy-pyridin-2-yl)-cinnamide] | 60 nM | 85.9 |  | 
O=C(Nc1ccc(O)cn1)c1ccc(-c2ccccc2)cc1 [Example 9, N-(5-hydroxy-pyridin-2-yl)-(1,1′-biphenyl)-4-carboxamide] | 10 nM and 26 nM | 93.3 |  | 
O=C(Nc1ccc(O)cn1)[C@@H]1C[C@H]1c1ccccc1 [Example 10, (trans)-N-(5-hydroxy-pyridin-2-yl)-2-phenyl-cyclopropane-carboxamide] | 230 nM | 67.2 |  | 
CC(C)=CC(=O)Nc1ccc(O)cc1 [Example 11, N-(4-hydroxy-phenyl)-3-methyl-2-butenamide] | > 10000 nM |  |  | inhibition at 10 µM [1]: 20%
O=C(Nc1ccc(O)cc1)c1cccc2ccccc12 [Example 13, N-(4-hydroxy-phenyl)-1-napthamide] | 8200 nM |  |  | inhibition at 10 µM [1]: 38%
O=C(Nc1ccc(O)cc1)c1ccc2[nH]ncc2c1 [Example 14, N-(4-hydroxy-phenyl)-1H-indazole-5-carboxamide] | > 10000 nM |  |  | inhibition at 10 µM [1]: 14.8%
O=C(Nc1ccc(O)cc1)c1ccc(C2CCCCC2)cc1 [Example 15, N-(4-hydroxy-phenyl)-4-cyclohexyl-benzamide] | 90 nM |  |  | inhibition at 10 µM (Jurkat): 87%
O=C(Nc1ccc(O)cc1)c1ccc(-c2ccc(O)cc2)cc1 [Example 16, N-(4-hydroxy-phenyl)-4′-hydroxy-biphenyl-4-carboxamide] |  |  |  | inhibition at 10 µM [1]: 54%
O=C(Nc1ccc(O)cn1)c1cccc2ccccc12 [Example 19, N-(5-hydroxy-pyridin-2-yl)-1-napthamide] |  | 31 |  | 
O=C(Nc1ccc(O)cn1)c1ccc(C2CCCCC2)cc1 [Example 20, N-(5-hydroxy-pyridin-2-yl)-4-cyclohexyl-benzamide] | 4 nM |  |  | inhibition at 1 µM (Jurkat): 95.9%
O=C(Nc1ccc(O)cn1)c1ccc(-c2ccc(O)cc2)cc1 [Example 21, N-(5-hydroxy-pyridin-2-yl)-4′-hydroxy-biphenyl-4-carboxamide] |  |  | 62.8 | 
COc1ccc(-c2ccc(C(=O)Nc3ccc(O)cn3)cc2)cc1 [Example 22, N-(5-hydroxy-pyridin-2-yl)-4′-methoxy-biphenyl-4-carboxamide] | 14 nM | 95.4 |  | 
N#Cc1ccc(-c2ccc(C(=O)Nc3ccc(O)cn3)cc2)cc1 [Example 23, N-(5-hydroxy-pyridin-2-yl)-4′-cyano-biphenyl-4-carboxamide] | 5 nM | 96.3 |  | 
O=C(Nc1ccc(O)cn1)c1ccc(-c2ccc(Cl)cc2)cc1 [Example 24, N-(5-hydroxy-pyridin-2-yl)-4′-chloro-biphenyl-4-carboxamide] | 3 nM | 96.1 |  | 
O=C(Nc1ccc(O)cn1)c1ccccc1 [Example 25, N-(5-hydroxy-pyridin-2-yl)-benzamide] |  | 4.44 |  | 
COc1ccc(C(=O)Nc2ccc(O)cn2)cc1 [Example 26, N-(5-hydroxy-pyridin-2-yl)-4-methoxy-benzamide] | 240 nM | 74.5 |  | 

SMILES | IC50 [2] | inhibition at 1 µM [3] [%] | inhibition at 0.5 µM [4] [%] | further results
CC(C)c1ccc(C(=O)Nc2ccc(O)cn2)cc1 [Example 27, N-(5-hydroxy-pyridin-2-yl)-4-isopropyl-benzamide] | 16 nM |  |  | 
O=C(Nc1ccc(O)cn1)[C@H]1CC[C@H](c2ccccc2)CC1 [Example 28, (1r,4r)-N-(5-hydroxy-pyridin-2-yl)-4-phenyl-cyclohexane-1-carboxamide] | 5 nM | 96.2 |  | 
CCCCCCCC(=O)Nc1ccc(O)cn1 [Example 29, N-(5-hydroxy-pyridin-2-yl)-octanamide] | 6 nM | 95.7 |  | 
O=C(Nc1ccc(O)cn1)C1CCCCC1 [Example 30, N-(5-hydroxy-pyridin-2-yl)-cyclohexane-carboxamide] |  |  | 49.5 | 
CC(C)CCCCCC(=O)Nc1ccc(O)cn1 [Example 31, N-(5-hydroxy-pyridin-2-yl)-7-methyloctan-amide] | 1 nM |  |  | inhibition at 0.5 µM (Jurkat): 91%
O=C(Nc1ccc(O)cn1)[C@H]1CC[C@H](c2ccc(Cl)cc2)CC1 [Example 32, (1r,4r)-4-(4-chlorophenyl)-N-(5-hydroxy-pyridin-2-yl)-cyclohexane-1-carboxamide] | 1 nM |  |  | inhibition at 0.5 µM (Jurkat): 96.8%
O=C(Nc1ccc(O)cn1)c1ccc(-c2ccccn2)cc1 [Example 33, N-(5-hydroxy-pyridin-2-yl)-4-(pyridin-2-yl)benzamide] |  |  | 71.1 | 
O=C(Nc1ccc(O)cn1)c1ccc(-c2cccnc2)cc1 [Example 34, N-(5-hydroxy-pyridin-2-yl)-4-(pyridin-3-yl)benzamide] |  |  | 85.6 | 
CC(C)(C)c1ccc(C(=O)Nc2ccc(O)cn2)cc1 [Example 35, 4-(tert-butyl)-N-(5-hydroxy-pyridin-2-yl)-benzamide] | 4 nM | 95.7 | 90 | 
COCCCCCC(=O)Nc1ccc(O)cn1 [Example 36, N-(5-hydroxy-pyridin-2-yl)-6-methoxy-hexanamide] |  |  | 44.8 | 
CC(C)OCCCCC(=O)Nc1ccc(O)cn1 [Example 37, N-(5-hydroxy-pyridin-2-yl)-5-isopropoxy-pentanamide] | 21 nM |  | 93.7 | 
O=C(Nc1ccc(O)cn1)c1ccc(-c2ccccc2Cl)cc1 [Example 38, 2′-chloro-N-(5-hydroxy-pyridin-2-yl)-[1,1′-biphenyl]-4-carboxamide] | 19 nM |  | 95.4 | 
O=C(Nc1ccc(O)cn1)c1ccc(-c2c(Cl)cccc2Cl)cc1 [Example 39, 2′,6′-dichloro-N-(5-hydroxy-pyridin-2-yI)-[1,1′-biphenyl]-4-carboxamide] |  |  | 65.9 | 
CC(C)O[C@H]1CC[C@H](C(=O)Nc2ccc(O)cn2)CC1 [Example 40, (1r,4r)-N-(5-hydroxypyridin-2-yl)-4-iso-propoxycyclo-hexane-1-carboxamide] | 21 nM |  | 92.6 | 
CC(C)O[C@H]1CC[C@@H](C(=O)Nc2ccc(O)cn2)CC1 [Example 41, (1s,4s)-N-(5-hydroxypyridin-2-yl)-4-iso-propoxycyclo-hexane-1-carboxamide] | 88 nM |  | 81.3 | 
CCc1ccc(C(=O)Nc2ccc(O)cn2)cc1 [Example 42, 4-ethyl-N-(5-hydroxy-pyridin-2-yl)-benzamide] | 130 nM |  | 85.5 | 
Cc1ccc(C(=O)Nc2ccc(O)cn2)cc1 [Example 43, N-(5-hydroxy-pyridin-2-yl)-4-methylbenz-amide] |  |  | 59.3 | 
O=C(Nc1ccc(O)cn1)c1ccc(C(F)(F)F)cc1 [Example 44, N-(5-hydroxy-pyridin-2-yl)-4-(trifluoro-methyl)-benzamide] | 63 nM |  | 88 | 
CC(c1ccc(C(=O)Nc2ccc(O)cn2)cc1)C(F)(F)F (centres unmarked) [Example 45, N-(5-hydroxy-pyridin-2-yl)-4-(1,1,1-trifluoro-propan-2-yl)-benzamide] | 23 nM |  | 94 | 
O=C(CC1CCN(c2ccc(C(F)(F)F)cc2)CC1)Nc1ccc(O)cn1 [Example 46, N-(5-hydroxypyridin-2-yl)-2-[1-[4-(trifluoromethyl)phenyl]piperidin-4-yl]acetamide] |  |  | 96.2 | 
O=C(CN1CCN(c2ccc(C(F)(F)F)cc2)CC1)Nc1ccc(O)cn1 [Example 47, N-(5-hydroxypyridin-2-yl)-2-[4-[4-(trifluoromethyl)phenyl]piperazin-1-yl]acetamide] | 50 nM |  |  | 
